From ChEMBL document CHEMBL3885881, “DrugMatrix”

Species on record: Rattus norvegicus
Test: DrugMatrix - Regimen: Daily Repeat
Type: toxicity, organism-based, Sprague-Dawley
Parameters: regimen Daily Repeat, gender Male, age 6-8 weeks
Details: in vivo, po, 0 mg/kg, route oral GAVAGE, dose level Control, vehicle .5 % CMC; for BASOPHIL / EOSINOPHIL / ERYTHROCYTE COUNT / HEMATOCRIT / HEMOGLOBIN / LEUKOCYTE COUNT / LYMPHOCYTE / MEAN CORPUSCULAR HEMOGLOBIN / MEAN CORPUSCULAR HEMOGLOBIN CONCENTRATION / MEAN CORPUSCULAR VOLUME / MONOCYTE / NEUTROPHIL / PLATELET COUNT: tissue Blood; for ALANINE AMINOTRANSFERASE / ALBUMIN / ALKALINE PHOSPHATASE / ASPARTATE AMINOTRANSFERASE / BLOOD UREA NITROGEN / CHLORIDE / CHOLESTEROL / CREATINE PHOSPHOKINASE / CREATININE / GLUCOSE / PHOSPHORUS / POTASSIUM / SODIUM / TOTAL BILIRUBIN / TOTAL PROTEIN: tissue Plasma

With `C[C@]12C/C(=C/O)C(=O)C[C@@H]1CC[C@@H]1[C@@H]2CC[C@@]2(C)[C@H]1CC[C@]2(C)O` [OXYMETHOLONE] the BASOPHIL (72 h, time 3 day) was 0.68%, the EOSINOPHIL (72 h, time 3 day) was 0.46% and the “ERYTHROCYTE COUNT” value (72 h, time 3 day) was 7.15 x10E6/uL. For the same compound, the HEMATOCRIT (72 h, time 3 day) was 45.44%, the HEMOGLOBIN (72 h, time 3 day) was 14.1 G/DL and the “LEUKOCYTE COUNT” value (72 h, time 3 day) was 9.78 x10E3/uL. For the same compound, the LYMPHOCYTE (72 h, time 3 day) was 84.44%, the “MEAN CORPUSCULAR HEMOGLOBIN” value (72 h, time 3 day) was 19.72 pg and the “MEAN CORPUSCULAR HEMOGLOBIN CONCENTRATION” value (72 h, time 3 day) was 31 G/DL. The “MEAN CORPUSCULAR VOLUME” value (72 h, time 3 day) was 63.66 fL, the MONOCYTE (72 h, time 3 day) was 2.14% and the NEUTROPHIL (72 h, time 3 day) was 11.16%. The “PLATELET COUNT” value (72 h, time 3 day) was 1378.2 x10E3/uL, the “ALANINE AMINOTRANSFERASE” value (72 h, time 3 day) was 42.33 u/L and the ALBUMIN (72 h, time 3 day) was 3.8 G/DL. For the same compound, the “ALKALINE PHOSPHATASE” value (72 h, time 3 day) was 388.17 u/L, the “ASPARTATE AMINOTRANSFERASE” value (72 h, time 3 day) was 68 u/L and the “BLOOD UREA NITROGEN” value (72 h, time 3 day) was 16.17 mg/dL. For the same compound, the CHLORIDE (72 h, time 3 day) was 96.67 MEQ/L, the CHOLESTEROL (72 h, time 3 day) was 71 mg/dL and the “CREATINE PHOSPHOKINASE” value (72 h, time 3 day) was 156.17 u/L. The CREATININE (72 h, time 3 day) was 0.57 mg/dL, the GLUCOSE (72 h, time 3 day) was 193.67 mg/dL and the PHOSPHORUS (72 h, time 3 day) was 11.43 mg/dL. The POTASSIUM (72 h, time 3 day) was 7 MEQ/L, the SODIUM (72 h, time 3 day) was 140.33 MEQ/L and the “TOTAL BILIRUBIN” value (72 h, time 3 day) was 0.48 mg/dL. The “TOTAL PROTEIN” value (72 h, time 3 day) was 6.8 G/DL, the BASOPHIL (120 h, time 5 day) was 1.47% and the EOSINOPHIL (120 h, time 5 day) was 1%. The “ERYTHROCYTE COUNT” value (120 h, time 5 day) was 7.12 x10E6/uL, the HEMATOCRIT (120 h, time 5 day) was 45.47% and the HEMOGLOBIN (120 h, time 5 day) was 14.1 G/DL. For the same compound, the “LEUKOCYTE COUNT” value (120 h, time 5 day) was 11.38 x10E3/uL, the LYMPHOCYTE (120 h, time 5 day) was 82.57% and the “MEAN CORPUSCULAR HEMOGLOBIN” value (120 h, time 5 day) was 19.82 pg. The “MEAN CORPUSCULAR HEMOGLOBIN CONCENTRATION” value (120 h, time 5 day) was 31.02 G/DL, the “MEAN CORPUSCULAR VOLUME” value (120 h, time 5 day) was 63.88 fL and the MONOCYTE (120 h, time 5 day) was 2.2%. The NEUTROPHIL (120 h, time 5 day) was 11.97%, the “PLATELET COUNT” value (120 h, time 5 day) was 1267 x10E3/uL and the “ALANINE AMINOTRANSFERASE” value (120 h, time 5 day) was 38 u/L. For the same compound, the ALBUMIN (120 h, time 5 day) was 3.72 G/DL, the “ALKALINE PHOSPHATASE” value (120 h, time 5 day) was 391 u/L and the “ASPARTATE AMINOTRANSFERASE” value (120 h, time 5 day) was 65.83 u/L. The “BLOOD UREA NITROGEN” value (120 h, time 5 day) was 14.17 mg/dL, the CHLORIDE (120 h, time 5 day) was 107.67 MEQ/L and the CHOLESTEROL (120 h, time 5 day) was 61 mg/dL. For the same compound, the “CREATINE PHOSPHOKINASE” value (120 h, time 5 day) was 148.33 u/L, the CREATININE (120 h, time 5 day) was 0.57 mg/dL and the GLUCOSE (120 h, time 5 day) was 177.17 mg/dL. It also gave a PHOSPHORUS (120 h, time 5 day) of 12.07 mg/dL, a POTASSIUM (120 h, time 5 day) of 7.2 MEQ/L and an SODIUM (120 h, time 5 day) of 151.5 MEQ/L. The “TOTAL BILIRUBIN” value (120 h, time 5 day) was 0.58 mg/dL and the “TOTAL PROTEIN” value (120 h, time 5 day) was 6.72 G/DL.
